One may read the kcat as the maximal rate divided by the concentration of active sites. The term Km denotes the substrate concentration at which the rate is half of its maximum.

Test [1] concerns bilirubin oxidase (BOD), free BOD 1 (not coated, stored at 4° C.). To be noted: oxygen saturation. On the procedure:
As a control, BOD on which coating was not performed and which was stored at 4° C. for the same period of time as that is necessary for the process of preparing coated BOD 2 (hereinafter referred to as “free BOD 1”) was used.
(§1) The Michaelis constants (KM) and the reaction rate constants (kcat) of coated BOD 1, coated BOD 2, and free BOD 1 prepared above were measured under the conditions shown in Table 1 below. […] The amount of protein of each BOD sample was determined by bicinchoninic acid (BCA) colorimetric protein assay from a calibration curve of bovine serum albumin (BSA) used as a standard protein.

Test [2] deals with bilirubin oxidase (BOD), free BOD 2 (not coated, stored at 25° C.). The following applies: ABTS, pH 7.0, 25° C., oxygen saturation. On the procedure:
(§2) As controls, BOD on which coating was not performed and which was stored at 25° C. for the same period of time as that is necessary for the process of preparing coated BOD 4 (hereinafter referred to as “free BOD 2”), and BOD on which coating was not performed and which was stored at 4° C. for the same period of time as that is necessary for the process of preparing coated BOD 4 (hereinafter referred to as “free BOD 3”) were used.
(§3) The Michaelis constants (KM) and the reaction rate constants (kcat) of coated BOD 3, coated BOD 4, free BOD 2, and free BOD 3 prepared above were measured under the conditions shown in Table 4. […] The amount of protein of each BOD sample was determined by BCA colorimetric protein assay from a calibration curve of BSA used as a standard protein.

Test [3] relates to bilirubin oxidase (BOD), free BOD 3 (not coated, stored at 4° C.). The following applies: oxygen saturation. As to the method:
as §2, §3

Test [4] deals with bilirubin oxidase (BOD), coated BOD 1 (Reference Example). On the procedure:
(§4) The solution was homogeneously added to the above acryloylated BOD solution, and the resulting solution was allowed to react for 60 minutes.
as §1

Test [5] has as its system bilirubin oxidase (BOD), coated BOD 2 (Reference Example). On the procedure: as §4, §1
For test [6], the system named is bilirubin oxidase (BOD), coated BOD 3 (Example 1, coated at 4° C.). On the procedure: (§5) First, 40 mg of BOD and 1 mg of ethylenediaminetetraacetic acid (EDTA) used as a stabilizer were dissolved in 3.8 mL of a 100 mM boric acid solution (pH 9.3). Subsequently, 6.0 mg of N-acryloxysuccinimide was dissolved in 0.2 mL of DMSO, and the solution was then gradually added to the boric acid buffer. The resulting solution was allowed to react at 4° C. for 10 hours. Subsequently, the resulting acryloylated BOD in which acryloyl groups were introduced was purified using a Sephadex G25 column at 4° C.
(§6) Subsequently, at 4° C., a mixture prepared by mixing acrylamide and N,N′-methylenebisacrylamide in a molar ratio of 10:1 was dissolved in 0.5 mL of deionized water free of oxygen. The solution was homogeneously added to the above acryloylated BOD solution, and the resulting solution was allowed to react for 60 minutes. The reaction was further performed in the presence of nitrogen at 4° C. for 60 minutes. Finally, the coated BOD (hereinafter referred to as “coated BOD 3”) was purified using a Sephadex G75 column.
as §3

The subject of test [7] is bilirubin oxidase (BOD), coated BOD 4 (Example 1, coated at 4° C.). As to the method: as §5, §6, §3

For the compound `CCn1c(=NN=c2sc3cc(S(=O)(=O)O)ccc3n2CC)sc2cc(S(=O)(=O)O)ccc21.N.N` [ABTS, 2,2′-Azino-bis(3-ethylbenzothiazoline-6-sulfonic acid) diammonium salt], the turnover number (kcat) in test [1] (free BOD 1, ABTS, pH 7.0, 25° C.) stood at 234 s⁻¹; in test [2], 158 s⁻¹; in test [3] (free BOD 3, ABTS, pH 7.0, 25° C.) it was 216 s⁻¹; in test [4] (coated BOD 1, ABTS, pH 7.0, 25° C., oxygen saturation), 10.2 s⁻¹; in test [5] (coated BOD 2, ABTS, pH 7.0, 25° C., oxygen saturation) it was 1.92 s⁻¹; in test [6] (coated BOD 3, ABTS, pH 7.0, 25° C., oxygen saturation) it was 52.5 s⁻¹. The catalytic constant (kcat) in test [7] (coated BOD 4, ABTS, pH 7.0, 25° C., oxygen saturation) amounted to 52.7 s⁻¹. For the same compound, the Michaelis-Menten constant (Km) in test [1] (read-out: KM,ABTS, free BOD 1, 712 pM, ABTS 0.05 to 10 mM, pH 7.0 sodium phosphate, 25° C., 730 nm) was found to be 307 µM; in test [3] (read-out: KM,ABTS, free BOD 3, 0.629 nM, ABTS 0.05 to 7 mM, pH 7.0 sodium phosphate, 25° C., 730 nm), 358 µM; in test [4] (read-out: KM,ABTS, coated BOD 1, 2.05 nM, ABTS 0.05 to 10 mM, pH 7.0 sodium phosphate, 25° C., oxygen saturation, 730 nm) it was 383 µM; in test [5] (read-out: KM,ABTS, coated BOD 2, 19.7 nM, ABTS 0.05 to 10 mM, pH 7.0 sodium phosphate, 25° C., oxygen saturation, 730 nm), 405 µM; in test [6] (read-out: KM,ABTS, coated BOD 3, 1.09 nM, ABTS 0.05 to 7 mM, pH 7.0 sodium phosphate, 25° C., oxygen saturation, 730 nm) it was 570 µM; in test [7] (read-out: KM,ABTS, coated BOD 4, 3.30 nM, ABTS 0.05 to 7 mM, pH 7.0 sodium phosphate, 25° C., oxygen saturation, 730 nm), 670 µM. The “Michaelis constant (KM) compared with free BOD 1” value in test [4] (coated BOD 1 vs free BOD 1) and in test [5] (coated BOD 2 vs free BOD 1) was “no significant difference” throughout. Also, the “Michaelis constant (KM) compared with free BOD 2 and free BOD 3” value was “about twice” in test [6] (coated BOD 3 vs free BOD 2 and free BOD 3); “about twice” in test [7] (coated BOD 4 vs free BOD 2 and free BOD 3).

Source of the values: patent publication US20090053582A1, “METHOD OF COATING BILIRUBIN OXIDASE” (SONY CORPORATION, priority 2007, published 2009).
